Legend:
[1] = molecular target: T1, [^3H]paroxetine binding (serotonin reuptake), cerebral cortex membrane preparation (Rattus norvegicus, UniProt P31652); test: Screening test using [^3H]paroxetine binding (Test Example 1); settings: [^3H]paroxetine 0.15 nM, test concentration not given
T1 construct: 790 μl of the cerebral cortex membrane preparation (150 μg/tube in terms of protein); from tissue; host or cells: rat cerebral cortex membrane preparation
Protocol: Screening Test Using [^3H]Paroxetine Binding
The membrane preparation was prepared according to the method^1a) of D'amato et al. In detail, after a male rat was decapitated, the whole brain was immediately removed and the cerebral cortex was dissected therefrom under ice-cooling. A buffer solution (50 mM Tris-HCl (pH=7.4), 120 mM NaCl, 5 mM KCl) was added to the cerebral cortex in an amount of 25 times the wet weight of the cerebral cortex, followed by homogenization in an ice bath by the use of a Teflon-glass homogenizer. The homogenate was centrifuged at 4° C. and 45,000×g for 10 minutes, and the resulting precipitate was dispersed in an ice-cooled buffer solution (50 mM Tris-HCl (pH=7.4), 120 mM NaCl, 5 mM KCl) by the use of Hiscotron™, followed by centrifugation at 4° C. and 45,000×g for 10 minutes. The resulting precipitate was re-suspended and the washing procedure was repeated. The membrane preparation thus obtained was suspended in the same buffer solution as described above, and then subjected to cryopreservation at −80° C.
[^3H]paroxetine binding was measured according to the method^1b) of Habert E et al. In detail, 200 μl of a dilution (final concentration: 0.15 nM) of [^3H]paroxetine with 50 mM Tris-HCl (pH=7.4) buffer containing 120 mM NaCl and 5 mM KCl, 790 μl of the cerebral cortex membrane preparation (150 μg/tube in terms of protein), 10 μl of a solution of a test drug in dimethyl sulfoxide and 1 ml of the above-mentioned buffer solution were mixed to prepare a liquid having a total volume of 2 ml. After this liquid was allowed to react at room temperature for 60 minutes, it was immediately filtered by suction at a low pressure through glass fiber filter. The glass fiber filter was washed 4 times with 4 ml of the same buffer solution as above and then transferred to a glass vial containing 4 ml of ACS-II (Amersham), and the radioactivity remaining on the filter was measured with a liquid scintillation counter.
Non-specific binding of [^3H]paroxetine was defined as the amount of [^3H]paroxetine bound in the presence of 100 μM 5-HT.
(§1) Rate of binding inhibition was calculated by the following equation:
(§2) Rate of binding inhibition (%)=100−100×{[amount of [^3H]paroxetine bound in the presence of test substance]−[amount of [^3H]paroxetine bound in the presence of 100 μM 5-HT]/[amount of [^3H]paroxetine bound in the absence of test substance]−[amount of [^3H]paroxetine bound in the presence of 100 μM 5-HT]}

[2] = molecular target: T2, serotonin 1A receptors ([^3H]8-OH-DPAT binding, hippocampus membrane preparation) (Rattus norvegicus, UniProt P19327); test: [^3H]8-OH-DPAT binding test (Test Example 2); settings: [^3H]8-OH-DPAT 2 nM, test concentration not given
T2 construct: 146 μl of the hippocampus membrane preparation (80 μg/tube in terms of protein); from tissue; host or cells: rat hippocampus membrane preparation
T2 sequence (P19327 1-422): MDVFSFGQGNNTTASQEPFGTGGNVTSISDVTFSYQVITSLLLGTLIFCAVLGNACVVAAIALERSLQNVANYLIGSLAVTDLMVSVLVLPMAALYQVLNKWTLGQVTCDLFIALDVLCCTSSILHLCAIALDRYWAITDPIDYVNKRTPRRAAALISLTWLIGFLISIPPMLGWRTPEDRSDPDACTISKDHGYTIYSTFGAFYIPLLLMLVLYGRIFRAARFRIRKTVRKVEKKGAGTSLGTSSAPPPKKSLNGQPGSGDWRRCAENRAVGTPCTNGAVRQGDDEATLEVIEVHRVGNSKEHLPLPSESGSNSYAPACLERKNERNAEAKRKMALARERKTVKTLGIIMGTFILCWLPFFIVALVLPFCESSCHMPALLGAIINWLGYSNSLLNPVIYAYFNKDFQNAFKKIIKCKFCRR
Protocol: [^3H]8-OH-DPAT Binding Test
The test was carried out according to the method^2 of Hall M. D. et al. After about one week of pre-breeding, a male rat was decapitated and the brain was immediately removed. The hippocampus was dissected from the brain on ice, and 50 mM Tris-HCl (pH=7.4) was added to the hippocampus in an amount of 40 times the wet weight of the hippocampus, followed by homogenization (3 min, 1 stroke/min) in an ice bath by the use of a Teflon-glass homogenizer. Then, the homogenate was centrifuged (4° C.) at 40,000×g for 10 minutes. The resulting precipitate was dispersed in an ice-cooled buffer solution (50 mM Tris-HCl (pH=7.4)) by the use of Hiscotron™, followed by centrifugation (4° C.) at 40,000×g for 10 minutes. Moreover, the resulting precipitate was re-suspended and the washing procedure was repeated once. The precipitate thus obtained was dispersed in an ice-cooled buffer solution (50 mM Tris-HCl (pH=7.4)) by the use of Hiscotron™, and the resulting dispersion was incubated at 37° C. for 1 hour and then centrifuged (4° C.) at 40,000×g for 10 minutes. Furthermore, the resulting precipitate was re-suspended and the washing procedure was repeated once. The membrane preparation thus obtained was suspended in the same buffer solution as described above, and then subjected to cryopreservation at −80° C.
Measurement was carried out by using a liquid for reaction (total volume: 200 μl) obtained by adding 50 μl of [^3H]8-OH-DPAT (final concentration: 2 nM), 4 μl of a solution of a test drug and 146 μl of the hippocampus membrane preparation (80 μg/tube in terms of protein) to a buffer solution containing 50 mM Tris-HCl (pH=7.4) and 4 mM CaCl2. After the liquid for reaction was allowed to react at room temperature for 30 minutes, it was immediately filtered by suction at a low pressure through glass fiber filter. The glass fiber filter was washed twice with 250 μl of a buffer solution and then added to a glass vial containing 4 ml of ACS-II (Amersham), and the radioactivity bound to receptors and remaining on the filter was measured with a liquid scintillation counter. Non-specific binding of [^3H]8-OH-DPAT was defined as the amount of [^3H]8-OH-DPAT bound in the presence of 1 μM 8-OH-DPAT.
as §1
as §2, with “of [^3H]8-OH-DPAT” for “of [^3H]paroxetine”, “of 1” for “of 100”, “μM 8-OH-DPAT]/[amount” for “μM 5-HT]/[amount”, “μM 8-OH-DPAT]}” for “μM 5-HT]}”

T1 sequence (P31652 whole entry): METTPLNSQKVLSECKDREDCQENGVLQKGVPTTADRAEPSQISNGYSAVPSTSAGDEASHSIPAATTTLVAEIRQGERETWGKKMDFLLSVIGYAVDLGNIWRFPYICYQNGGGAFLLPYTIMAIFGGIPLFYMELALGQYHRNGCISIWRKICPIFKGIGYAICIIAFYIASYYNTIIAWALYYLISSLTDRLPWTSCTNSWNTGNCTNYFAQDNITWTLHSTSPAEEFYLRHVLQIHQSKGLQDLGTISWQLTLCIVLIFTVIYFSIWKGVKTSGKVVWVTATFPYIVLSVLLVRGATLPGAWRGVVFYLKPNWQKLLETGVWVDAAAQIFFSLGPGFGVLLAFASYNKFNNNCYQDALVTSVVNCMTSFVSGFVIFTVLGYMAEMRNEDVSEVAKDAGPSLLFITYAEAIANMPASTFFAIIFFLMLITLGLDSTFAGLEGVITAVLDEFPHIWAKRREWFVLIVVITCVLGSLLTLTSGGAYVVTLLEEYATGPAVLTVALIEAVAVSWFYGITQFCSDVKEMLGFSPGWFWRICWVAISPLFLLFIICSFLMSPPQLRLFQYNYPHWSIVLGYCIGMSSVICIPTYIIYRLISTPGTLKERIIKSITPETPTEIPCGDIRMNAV

SMILES | Rate of inhibition of [^3H]paroxetine binding (%) [1] | Rate of inhibition of [^3H]8-OH-DPAT binding (%) [2] | melting point
COc1ccc(Br)c(CC2CCN(CCC3CCN(CCO)CC3)CC2)c1.Cl.Cl [Example 6, 2-(4-(2-(4-(2-Bromo-5-methoxybenzyl)-1-piperidinyl)ethyl)-1-piperidinyl)ethanol Dihydrochloride] | 87% | 71% | –
CCN[C@H]1CC[C@H](CCN2CCC(Cc3cc(OC)ccc3Br)CC2)CC1.Cl.Cl [Example 38, trans-N-(4-(2-(4-(2-bromo-5-methoxybenzyl)-piperidin-1-yl)ethyl)cyclohexyl)-N-ethylamine Dihydrochloride] | 100% | 96% | –
CO[C@H]1CC[C@H](CCN2CCC(Cc3cc(OC(C)C)ccc3Br)CC2)CC1.Cl [Example 44, trans-4-(2-Bromo-5-isopropoxybenzyl)-1-(2-(4-methoxycyclohexyl)ethyl)piperidine Hydrochloride] | 99% | 92% | 196 °C
CCN([C@H]1CC[C@H](CCCN2CCC(Cc3cc(OC(C)C)ccc3Br)CC2)CC1)S(C)(=O)=O.Cl [Example 46, trans-N-(4-(3-(4-(2-bromo-5-isopropoxy-benzyl)piperidin-1-yl)propyl)cyclohexyl)-N-ethylmethanesulfonamide Hydrochloride] | 100% | 65% | –
COc1ccc(Br)c(CC2CCN(CC[C@H]3CC[C@H](NS(=O)(=O)N(C)C)CC3)CC2)c1.Cl [Example 47, trans-N′-(4-(2-(4-(2-bromo-5-methoxybenzyl)-piperidin-1-yl)ethyl)cyclohexyl)-N,N-dimethylsulfamide hydrochloride] | 100% | 95% | 214 °C
COc1ccc(Br)c(CC2CCN(CC[C@H]3CC[C@H](NC(=O)C(F)(F)F)CC3)CC2)c1.Cl [Example 48, trans-N-(4-(2-(4-(2-bromo-5-methoxybenzyl)-piperidin-1-yl)ethyl)cyclohexyl)-2,2,2-trifluoro-acetamide Hydrochloride] | 99% | 90% | 230 °C
CCN(CC)[C@H]1CC[C@@H](CCCN2CCC(Cc3cc(OC)ccc3Br)CC2)CC1.Cl.Cl [Example 54, cis-N-(4-(3-(4-(2-bromo-5-methoxybenzyl)-piperidin-1-yl)propyl)cyclohexyl)-N,N-diethylamine Dihydrochloride] | 80% | 99% | –
CCN(CCOC)[C@H]1CC[C@H](CCN2CCC(Cc3cc(OC)ccc3Br)CC2)CC1.Cl.Cl [Example 58, trans-N-(4-(2-(4-(2-bromo-5-methoxybenzyl)-piperidin-1-yl)ethyl)cyclohexyl)-N-ethyl-N-(2-methoxyethyl)amine Dihydrochloride] | 100% | 92% | 78 °C
COc1ccc(Br)c(CC2CCN(CC[C@H]3CC[C@@H](CCO)CC3)CC2)c1.Cl [Example 64, cis-2-(4-(2-(4-(2-Bromo-5-methoxybenzyl)-piperidin-1-yl)ethyl)cyclohexyl)ethanol Hydrochloride] | 96% | 96% | 273 °C
CC(C)Oc1ccc(Br)c(CC2CCN(CC3CCc4ccccc4N3)CC2)c1.Cl.Cl (centres unmarked) [Example 65, 2-((4-(2-Bromo-5-isopropoxybenzyl)piperidin-1-yl)methyl)-1,2,3,4-tetrahydroquinoline Dihydrochloride] | 97% | 60% | –
Cl.Cl.Clc1ccc(Br)c(CC2CCN(CC3CCc4ccccc4N3)CC2)c1 (centres unmarked) [Example 67, 2-((4-(2-Bromo-5-chlorobenzyl)piperidin-1-yl)methyl)-1,2,3,4-tetrahydroquinoline Dihydrochloride] | 81% | 73% | 227 °C
COc1ccc(Br)c(CC2CCN(CC3CCc4ccccc4N3)CC2)c1.Cl.Cl (centres unmarked) [Example 69, 2-((4-(2-Bromo-5-methoxybenzyl)piperidin-1-yl)methyl)-1,2,3,4-tetrahydroquinoline Dihydrochloride] | 95% | 96% | –
COc1ccc(Br)c(CC2CCN(CC3CNc4ccccc4C3)CC2)c1.Cl.Cl (centres unmarked) [Example 70, 3-((4-(2-Bromo-5-methoxybenzyl)piperidin-1-yl)methyl)-1,2,3,4-tetrahydroquinoline Dihydrochloride] | 84% | 86% | –

Reference: patent publication US20050065140A1, “Serotonine reuptake inhibitor” (priority 2001, published 2005)
